According to PMC6952396, “Structural basis for itraconazole-mediated NPC1 inhibition” (Nature Communications, 2020):

Target: T1, NPC1 (Cricetulus griseus, UniProt Q9JLG3)
T1 construct: CHO-7 cells in the medium are deprived of cholesterol to induce the LDL receptors biosynthesis; endogenous in cells; host or cells: CHO-7 cells
T1 sequence (Q9JLG3 23-1277): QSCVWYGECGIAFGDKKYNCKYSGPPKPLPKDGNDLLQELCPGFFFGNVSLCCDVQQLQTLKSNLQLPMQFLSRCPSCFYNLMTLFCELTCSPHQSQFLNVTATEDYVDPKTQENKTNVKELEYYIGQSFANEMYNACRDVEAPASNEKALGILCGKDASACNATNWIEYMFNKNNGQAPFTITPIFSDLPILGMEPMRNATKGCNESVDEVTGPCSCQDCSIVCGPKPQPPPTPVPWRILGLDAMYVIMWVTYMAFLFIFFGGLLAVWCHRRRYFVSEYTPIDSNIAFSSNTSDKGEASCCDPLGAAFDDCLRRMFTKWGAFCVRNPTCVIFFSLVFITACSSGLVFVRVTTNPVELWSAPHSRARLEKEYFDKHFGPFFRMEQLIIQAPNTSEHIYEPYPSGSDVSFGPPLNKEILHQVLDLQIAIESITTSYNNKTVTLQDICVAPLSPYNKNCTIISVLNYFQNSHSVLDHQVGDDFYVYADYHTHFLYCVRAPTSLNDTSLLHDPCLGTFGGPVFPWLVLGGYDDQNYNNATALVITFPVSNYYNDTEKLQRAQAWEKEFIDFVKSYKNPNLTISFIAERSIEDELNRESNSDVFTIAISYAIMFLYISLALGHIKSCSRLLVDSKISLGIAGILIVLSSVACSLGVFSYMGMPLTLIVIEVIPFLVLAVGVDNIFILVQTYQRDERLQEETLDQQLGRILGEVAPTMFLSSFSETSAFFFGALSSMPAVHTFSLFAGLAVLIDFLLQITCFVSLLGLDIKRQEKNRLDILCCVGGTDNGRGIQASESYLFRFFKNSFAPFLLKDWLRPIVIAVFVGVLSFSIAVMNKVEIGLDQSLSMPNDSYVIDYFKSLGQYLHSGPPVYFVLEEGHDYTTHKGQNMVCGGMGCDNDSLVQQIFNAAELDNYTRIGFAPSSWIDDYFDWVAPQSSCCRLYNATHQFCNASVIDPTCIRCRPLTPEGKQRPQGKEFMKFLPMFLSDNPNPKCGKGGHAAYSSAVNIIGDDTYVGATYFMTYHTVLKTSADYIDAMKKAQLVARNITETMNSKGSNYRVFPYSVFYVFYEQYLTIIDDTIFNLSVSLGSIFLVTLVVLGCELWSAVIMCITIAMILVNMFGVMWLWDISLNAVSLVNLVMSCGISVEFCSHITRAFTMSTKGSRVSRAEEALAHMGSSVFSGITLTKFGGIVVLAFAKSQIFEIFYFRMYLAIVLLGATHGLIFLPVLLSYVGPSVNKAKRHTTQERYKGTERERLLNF
Experiment: Cholesterol re-esterification (ACAT) assay measuring NPC1-mediated export of cholesterol from lysosomes in CHO-7 cells
Assay type: cell-based
Conditions: for cholesteryl [14C] oleate formed, Repeat 1 / cholesteryl [14C] oleate formed, Repeat 2: Fig. 2 source data; for cholesteryl [14C] oleate formed, Repeat 3 / cholesteryl [14C] oleate formed, Repeat 4: Supplementary Fig. 3 source data
In short: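 CHO-7 cells were sterol-deprived (5% LPDS, 50 µM compactin, 50 µM mevalonate), then given compounds with 10% FCS lipoproteins for 4 h at 37 °C and pulse-labeled 2 h with 0.1 mM [14C]oleate. Lipids were extracted, separated by TLC and cholesteryl [14C]oleate quantified by scintillation counting.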

CC(=O)N1CCN(c2ccc(OCC3COC(Cn4ccnc4)(c4ccc(Cl)cc4Cl)O3)cc2)CC1 (stereo not shown) [Ketoconazole, ketoconazole]
cholesteryl [14C] oleate formed, Repeat 1 (0.06 uM compound): 5.105 nanomoles formed per hour per milligram cell protein | cholesteryl [14C] oleate formed, Repeat 2 (0.06 uM compound): 4.499 nanomoles formed per hour per milligram cell protein | cholesteryl [14C] oleate formed, Repeat 1 (0.1 uM compound): 5.133 nanomoles formed per hour per milligram cell protein | cholesteryl [14C] oleate formed, Repeat 2 (0.1 uM compound): 5.266 nanomoles formed per hour per milligram cell protein | cholesteryl [14C] oleate formed, Repeat 3 (0.1 uM compound): 5.665 nanomoles formed per hour per milligram cell protein | cholesteryl [14C] oleate formed, Repeat 4 (0.1 uM compound): 5.29 nanomoles formed per hour per milligram cell protein | cholesteryl [14C] oleate formed, Repeat 1 (0.3 uM compound): 4.872 nanomoles formed per hour per milligram cell protein | cholesteryl [14C] oleate formed, Repeat 2 (0.3 uM compound): 4.637 nanomoles formed per hour per milligram cell protein | cholesteryl [14C] oleate formed, Repeat 3 (0.3 uM compound): 4.5308 nanomoles formed per hour per milligram cell protein | cholesteryl [14C] oleate formed, Repeat 4 (0.3 uM compound): 5.341 nanomoles formed per hour per milligram cell protein | cholesteryl [14C] oleate formed, Repeat 1 (1 uM compound): 4.011 nanomoles formed per hour per milligram cell protein | cholesteryl [14C] oleate formed, Repeat 2 (1 uM compound): 4.3222 nanomoles formed per hour per milligram cell protein | cholesteryl [14C] oleate formed, Repeat 3 (1 uM compound): 3.625 nanomoles formed per hour per milligram cell protein | cholesteryl [14C] oleate formed, Repeat 4 (1 uM compound): 4.546 nanomoles formed per hour per milligram cell protein | IC50 (IC50 (concentration at which each compound inhibited cholesterol esterification by 50%), 10% FCS, 4 h then 2 h [14C] oleate pulse): > 1 µM | inhibition of NPC1-mediated cholesterol transport (result in words): did not inhibit
